Reference: PubChem BioAssay (NCI)
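A five-concentration, 48-hour dose response in 96-well plates underlies each endpoint, interpolated linearly between surrounding concentrations. Here, GI50 denotes the concentration required for 50% inhibition of growth. TGI: total growth inhibition.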

Assays:
Assay in all cases: NCI tumour cell line growth inhibition, 48 h
HCC-2998 colon = tested on: HCC-2998 colon
HL-60(TB) leukemia = tested on: HL-60(TB) leukemia
HOP-92 NSCLC = tested on: HOP-92 NSCLC
LOX IMVI melanoma = tested on: LOX IMVI melanoma
MALME-3M melanoma = tested on: MALME-3M melanoma
NCI-H226 lung = tested on: NCI-H226 lung
SK-MEL-5 melanoma = tested on: SK-MEL-5 melanoma
SK-OV-3 ovarian = tested on: SK-OV-3 ovarian
SN12C renal = tested on: SN12C renal
SNB-75 CNS = tested on: SNB-75 CNS

| Structure (SMILES) | GI50 (HCC-2998 colon) [µM] | TGI (HCC-2998 colon) [µM] | GI50 (HL-60(TB) leukemia) [µM] | TGI (HL-60(TB) leukemia) [µM] | GI50 (HOP-92 NSCLC) [µM] | TGI (HOP-92 NSCLC) [µM] | GI50 (LOX IMVI melanoma) [µM] | TGI (LOX IMVI melanoma) [µM] | GI50 (MALME-3M melanoma) [µM] | TGI (MALME-3M melanoma) [µM] | GI50 (NCI-H226 lung) [µM] | TGI (NCI-H226 lung) [µM] | GI50 (SK-MEL-5 melanoma) [µM] | TGI (SK-MEL-5 melanoma) [µM] | GI50 (SK-OV-3 ovarian) [µM] | TGI (SK-OV-3 ovarian) [µM] | GI50 (SN12C renal) [µM] | TGI (SN12C renal) [µM] | GI50 (SNB-75 CNS) [µM] | TGI (SNB-75 CNS) [µM] |
| --- | --- | --- | --- | --- | --- | --- | --- | --- | --- | --- | --- | --- | --- | --- | --- | --- | --- | --- | --- | --- |
| CN1CCN(Cn2nc(-c3cc(F)c(Cl)cc3Cl)oc2=S)CC1 | 55.9 | > 100 | 78.5 | > 100 | > 100 | > 100 | 20.3 | 45.6 | 26.4 | 74.1 | 34.4 | > 100 | 17.4 | 33.7 | 56.9 | > 100 | 28.3 | > 100 | 53.3 | > 100 |
| COc1cccc2c1C(=O)c1c(O)c3c(c(O)c1C2=O)CC(O)(C(C)=O)CC3O (stereo not given) | – | 11.1 | – | 26.5 | – | 28.9 | – | 8.7 | – | 12.7 | – | 18.6 | – | 6.98 | – | 36.9 | – | 29.4 | – | 32.4 |
| O=c1[nH]c(-c2ccc(Cl)cc2)cc2ccsc12 | – | 9.61 | – | > 100 | – | 77.4 | – | > 100 | – | 5.8 | – | > 100 | – | > 100 | – | 77.9 | – | > 100 | – | 23.2 |
